{"source": "patent US20250230193A1", "about": "“CYCLIC COMPOUND HAVING SELECTIVE KRAS INHIBITORY EFFECT ON HRAS AND NRAS” (CHUGAI SEIYAKU KABUSHIKI KAISHA, priority 2022, published 2025)", "key": {"[1]": {"target": "GDP-bound NRAS wild-type protein (Homo sapiens, UniProt P01111)", "sequence (P01111 whole entry)": "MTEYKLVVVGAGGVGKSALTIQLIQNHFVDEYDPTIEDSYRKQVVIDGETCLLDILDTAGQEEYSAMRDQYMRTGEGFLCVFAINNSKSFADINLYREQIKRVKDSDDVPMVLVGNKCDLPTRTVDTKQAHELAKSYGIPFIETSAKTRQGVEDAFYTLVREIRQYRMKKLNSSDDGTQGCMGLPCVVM", "assay": "Binding to NRAS by surface plasmon resonance (SPR), Single Cycle Kinetics", "settings": "SPR"}, "[2]": {"target": "GDP-bound HRAS wild-type protein (Homo sapiens, UniProt P01112)", "sequence (P01112 whole entry)": "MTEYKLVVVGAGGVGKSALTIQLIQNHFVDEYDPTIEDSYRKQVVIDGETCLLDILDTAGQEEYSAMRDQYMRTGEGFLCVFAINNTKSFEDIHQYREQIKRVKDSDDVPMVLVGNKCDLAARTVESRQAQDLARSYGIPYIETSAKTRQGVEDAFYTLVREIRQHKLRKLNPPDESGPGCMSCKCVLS", "assay": "Binding to HRAS by surface plasmon resonance (SPR), Single Cycle Kinetics", "settings": "SPR"}, "[3]": {"settings": "KD ratio, GDP-bound NRAS wild-type vs GDP-bound KRAS wild-type"}, "[4]": {"settings": "KD ratio, GDP-bound HRAS wild-type vs GDP-bound KRAS wild-type"}}, "note": "*1 amine or outer side, *2 acyl side, *3 side chain or, on linkers, in order; H or OH if unused. Where a SMILES comes first, the peptide text is derived from it. Bridges are numbered along the chain shown (N, C = ends). [ ]: non-standard residue; d: D form. The star is where a group is joined. hPhe(3-Cl-4-CF3) = N[C@@H](CCc1ccc(C(F)(F)F)c(Cl)c1)C(=O)O; NPrPhe(4-CF3) = CCCN[C@@H](Cc1ccc(C(F)(F)F)cc1)C(=O)O; NMeGly(cPent) = CN[C@H](C(=O)O)C1CCCC1; X46 = CC1(C)CN([*:1])[C@@H]1C(=O)[*:2]; NMeD = CN[C@@H](CC(=O)O)C(=O)O; NMeL = CN[C@@H](CC(C)C)C(=O)O; Morpholide = C1CN(*)CCO1; Ac5c = NC1(C(=O)O)CCCC1; Aze = O=C(O)[C@@H]1CCN1; Sar = CNCC(=O)O", "data": [{"smiles": "CCO[C@@H]1C[C@H]2C(=O)NC3(CCC3)C(=O)N(C)[C@@H](CC(F)F)C(=O)N(C)[C@H](C(=O)N3CCOCC3)CC(=O)N(C)[C@@H](CC(C)C)C(=O)N[C@@H]([C@@H](C)CC)C(=O)N(C)CC(=O)N(C)[C@H]3CCCCN(C3=O)[C@@H](Cc3ccc(C(F)(F)F)cc3)C(=O)N(C)CC(=O)N[C@@H](CCc3cc(F)c(C(F)(F)F)c(F)c3)C(=O)N2C1", "note": "[PP0813]", "values": [{"measurement": "NRAS/KRAS (ratio of KD value with respect to NRAS to KD value with respect to KRAS)", "setting": "[1]; [3]", "value": "C (A compound having a KD ratio of 0.1 or more and less than 3 is denoted as C)"}, {"measurement": "HRAS/KRAS (ratio of KD value with respect to HRAS to KD value with respect to KRAS)", "setting": "[2]; [4]", "value": "B (a compound having 3 or more and less than 10 is denoted as B)"}]}, {"smiles": "CCO[C@@H]1C[C@H]2C(=O)NC3(CCC3)C(=O)N(C)[C@@H](C3CCCC3)C(=O)N(C)[C@H](C(=O)N(CC)CC)CC(=O)N(C)[C@@H](CC(C)C)C(=O)N[C@@H]([C@@H](C)CC)C(=O)N(C)CC(=O)N(C)[C@H]3C/C=C\\CCN(C3=O)[C@@H](Cc3ccc(C)cc3)C(=O)N(C)CC(=O)N[C@@H](CCc3ccc(C(F)(F)F)c(OC)c3)C(=O)N2C1", "note": "[PP1851]", "values": [{"measurement": "NRAS/KRAS (ratio of KD value for NRAS to KD value for KRAS)", "setting": "[1]; [3]", "value": "A (a compound having 10 or more and less than 20 is denoted as A)"}, {"measurement": "HRAS/KRAS (ratio of KD value for HRAS to KD value for KRAS)", "setting": "[2]; [4]", "value": "A (a compound having 10 or more and less than 20 is denoted as A)"}]}, {"smiles": "CC[C@H](C)[C@@H]1NC(=O)[C@H](CC(C)C)N(C)C(=O)C[C@@H](C(=O)N2CCOCC2)N(C)C(=O)[C@H](C2CCCC2)N(C)C(=O)C2(CCCC2)NC(=O)[C@@H]2CCCN2C(=O)[C@H](CCc2ccc(C(F)(F)F)c(Cl)c2)NC(=O)CN(C)C(=O)[C@H](Cc2ccc(F)cc2)N2CCCCC[C@@H](C2=O)N(C)C(=O)CN(C)C1=O", "note": "[PP0612]", "values": [{"measurement": "NRAS/KRAS (ratio of KD value with respect to GDP-bound NRAS wild-type protein to KD value with respect to KRAS)", "setting": "[1]; KD ratio NRAS/KRAS", "value": "B (a compound having 3 or more and less than 10 is denoted as B)"}, {"measurement": "HRAS/KRAS (ratio of KD value with respect to GDP-bound HRAS wild-type protein to KD value with respect to KRAS)", "setting": "[2]; KD ratio HRAS/KRAS", "value": "B (a compound having 3 or more and less than 10 is denoted as B)"}]}, {"smiles": "CCCOC[C@H]1C(=O)N[C@@H]([C@@H](C)CC)C(=O)N(C2CC2)CC(=O)N(C)[C@H]2C/C=C\\CCN(C2=O)[C@@H](Cc2ccc(C)cc2)C(=O)N(C)CC(=O)N[C@@H](CCc2ccc(C(F)(F)F)c(OC)c2)C(=O)N2C[C@H](OCC)C[C@H]2C(=O)N(C)C2(CCC2)C(=O)N(C)[C@@H](C2CCCC2)C(=O)N(C)[C@H](C(=O)N(C)C)CC(=O)N1C", "note": "[PP2330]", "values": [{"measurement": "NRAS/KRAS (ratio of KD value with respect to NRAS to KD value with respect to KRAS)", "setting": "[1]; GDP-bound NRAS wild-type vs GDP-bound KRAS wild-type", "value": "A (a compound having 10 or more and less than 20 is denoted as A)"}, {"measurement": "HRAS/KRAS (ratio of KD value with respect to HRAS to KD value with respect to KRAS)", "setting": "[2]; GDP-bound HRAS wild-type vs GDP-bound KRAS wild-type", "value": "A (a compound having 10 or more and less than 20 is denoted as A)"}]}, {"smiles": "CCCN1C(=O)[C@@H]2CCN2C(=O)[C@H]2N(CC2(C)C)C(=O)[C@H]([C@@H](C)CC)NC(=O)[C@H](CC(C)C)N(C)C(=O)C[C@@H](C(=O)N2CCOCC2)N(C)C(=O)[C@H](C2CCCC2)N(C)C(=O)C2(CCCC2)NC(=O)[C@@H]2CCCN2C(=O)[C@H](CCc2ccc(C(F)(F)F)c(Cl)c2)NC(=O)CN(C)C(=O)[C@@H]1Cc1ccc(C(F)(F)F)cc1", "note": "[PP0277] ([NMeL]I[X46][Aze][NPrPhe(4-CF3)][Sar][hPhe(3-Cl-4-CF3)]P[Ac5c][NMeGly(cPent)][NMeD]-Morpholide; lactam N-11)", "values": [{"measurement": "NRAS/KRAS (ratio of KD for GDP-bound NRAS wild-type to KD for KRAS)", "setting": "[1]; KD ratio NRAS/KRAS", "value": "C (A compound having a KD ratio of 0.1 or more and less than 3 is denoted as C)"}, {"measurement": "HRAS/KRAS (ratio of KD for GDP-bound HRAS wild-type to KD for KRAS)", "setting": "[2]; KD ratio HRAS/KRAS", "value": "C (A compound having a KD ratio of 0.1 or more and less than 3 is denoted as C)"}]}, {"smiles": "CC[C@H](C)[C@@H]1NC(=O)[C@H](CC(C)C)N(C)C(=O)C[C@@H](C(=O)N2CCOCC2)N(C)C(=O)[C@H](C2CCCC2)N(C)C(=O)C2(CCC2)NC(=O)[C@@H]2[C@@H](OC)CCN2C(=O)[C@H](CCc2cc(F)c(C(F)(F)F)c(F)c2)NC(=O)CN(C)C(=O)[C@H](Cc2ccc(C(F)(F)F)cc2)N2CCCCC[C@@H](C2=O)N(C)C(=O)CN(C)C1=O", "note": "[PP1067]", "values": [{"measurement": "NRAS/KRAS (ratio of KD value with respect to NRAS to KD value with respect to KRAS)", "setting": "[1]; [3]", "value": "B (a compound having 3 or more and less than 10 is denoted as B)"}, {"measurement": "HRAS/KRAS (ratio of KD value with respect to HRAS to KD value with respect to KRAS)", "setting": "[2]; [4]", "value": "B (a compound having 3 or more and less than 10 is denoted as B)"}]}, {"smiles": "CCO[C@@H]1C[C@H]2C(=O)NC3(CCC3)C(=O)N(C)[C@@H](C3CCCC3)C(=O)N(C)[C@H](C(=O)N(C)C)CC(=O)N(C)[C@@H](CC)C(=O)N[C@@H]([C@@H](C)CC)C(=O)N(CC)CC(=O)N(C)[C@H]3C/C=C\\CCN(C3=O)[C@@H](Cc3ccc(C(F)(F)F)cc3)C(=O)N(C)CC(=O)N[C@@H](CCc3cc(F)c(C(F)(F)F)c(F)c3)C(=O)N2C1", "note": "[PP1052]", "values": [{"measurement": "NRAS/KRAS (ratio of KD value with respect to NRAS to KD value with respect to KRAS)", "setting": "[1]; [3]", "value": "A (a compound having 10 or more and less than 20 is denoted as A)"}, {"measurement": "HRAS/KRAS (ratio of KD value with respect to HRAS to KD value with respect to KRAS)", "setting": "[2]; [4]", "value": "A (a compound having 10 or more and less than 20 is denoted as A)"}]}]}
